Results from patent US11147819B2, “EZH2 inhibitors for treating cancer” (Epizyme, Inc., priority 2016, dated 2021).

B1: CD40L: recombinant CD40L, a B-cell co-stimulatory molecule (protein, UniProt P29965 113-261, looked up)
CD40 ligand, soluble form: MQKGDQNPQIAAHVISEASSKTTSVLQWAEKGYYTMSNNLVTLENGKQLTVKRQGLYYIYAQVTFCSNREASSQAPFIASLCLKSPGRFERILLRAANTHSSAKPCGQQSIHLGGVFELQPGASVFVNVTDPSQVSHGTGFTSFGLLKL

Key:
[1] = test system: TMD8; experiment: Combination study with tazemetostat (synergy by IC50 shifts or Calcusyn); type: cell-based; details: TMD8 (ABC)
Protocol: (§1) Synergy was assessed by IC50 shifts or Calcusyn. [table]

[2] = test system: KARPAS-422; experiment: as above; type: cell-based; details: KARPAS-422 (EZH2 mutant)
Protocol: as §1

[3] = test system: SU-DHL5; experiment: as above; type: cell-based; details: SU-DHL-5 (EZH2 wt)
Protocol: as §1

[4] = test system: SU-DHL-5 cell line xenograft; experiment: Cell line xenograft model, tumor growth; type: in vivo; details: SU-DHL-5 xenograft model
From the text: (§2) FIG. 1. A) 14 evaluable NHL patients treated (V. Ribrag ASH 2015): 13 WT+1 mutant by cobas® EZH2 Mutation Test (in development, Roche Molecular Systems, Inc.)*Cheson Criteria. B) EZH2 mutant cell lines are more sensitive to TAZ in vitro. […] Cell of origin of cell lines determined by RNAseq analysis (Scott et al. Blood 2014).

[5] = test system: OCI-LY19 cell line xenograft; experiment: Cell line xenograft model, tumor growth; type: in vivo
From the text: as §2

[6] = test system: B-cell lymphomas; details: phase I; patients with B-cell lymphomas; cited from earlier work
[7] = Oral bioavailability; details: in vivo
[8] = test system: Cells; experiment: Apoptosis, single agents or combination, 10 days (FIG. 6B); type: cell-based
Protocol: (§3) FIG. 6. A) Cells were treated for 7 days with single agents or in combination. […] This effect is not seen in the ABC cell line, TMD8. B) Cells were treated for 10 days with single agents (100 ng/mL CD40L) or in combination.

[9] = test system: IκBα in SU-DHL-5 cells; experiment: IκBα degradation in response to CD40L (FIG. 7B); type: cell-based; details: 4-day treatment, CD40L 500 ng/mL
[10] = test system: DLBCL cell lines; experiment: RNAseq GSEA for plasma and memory cell gene sets; type: cell-based; details: 1 μM TAZ for 4 days; KARPAS-422, SU-DHL-6, Farage, SU-DHL-5, TMD8, Toledo
Protocol: FIG. 3. […] RNAseq data from KARPAS-422 (EZH2 mutant GCB), SU-DHL-6 (EZH2 mutant GCB) Farage (EZH2 wt GCB), SU-DHL-5 (EZH2 wt GCB), TMD8 (EZH2 wt ABC) and Toledo (EZH2 wt ABC) treated with 1 μM TAZ for 4 days was analyzed using GSEA (Broad Institute) for the presence of plasma and memory cell gene sets.

[11] = test system: PRDM1 (BLIMP1) in TMD8; experiment: PRDM1 (BLIMP1) expression by qPCR or western blot; type: cell-based; details: ABC cell line TMD8; 7 days with 1 μM TAZ vs DMSO
Protocol: (§4) FIG. 4. Cells were treated for 7 days with 1 μM TAZ or DMSO.

[12] = test system: PRDM1 (BLIMP1) in GCB lines; experiment: PRDM1 (BLIMP1) expression by qPCR or western blot; type: cell-based; details: all GCB lines; 7 days with 1 μM TAZ vs DMSO
Protocol: as §4

[13] = test system: H3K27 trimethylation in KARPAS-422; experiment: H3K27 trimethylation inhibition (FIG. 6C); type: cell-based; details: KARPAS-422, mutant EZH2 cell line
Protocol: as §3

[14] = test system: GCB lines; experiment: Combination of CD40L with TAZ (FIG. 5); type: cell-based
[15] = test system: PRDM1 in SU-DHL-5 (wt EZH2); experiment: PRDM1 expression after co-treatment with TAZ and CD40L (FIG. 7A); type: cell-based; details: 14-day co-treatment

| oral bioavailability [7] | Molecule | Combination effect with TAZ (FIG. 5) [1] | Combination effect with TAZ (FIG. 5) [2] | Combination effect with TAZ (FIG. 5) [3] | tumor growth in response to TAZ treatment [4] | tumor growth in response to TAZ treatment [5] | clinical response [6] | apoptosis, single agent compared to DMSO [8] | IκBα degradation in response to CD40L [9] | plasma cell and memory cell gene sets (RNAseq, GSEA) [10] | PRDM1 (BLIMP1) expression [11] | PRDM1 (BLIMP1) expression [12] | effect on TAZ inhibition of H3K27 trimethylation [13] | apoptosis, combination with TAZ compared to TAZ single agent ([8]; 100 ng/mL CD40L) | Combination effect with TAZ (FIG. 5) [14] | PRDM1 expression, co-treatment with TAZ [15] |
| --- | --- | --- | --- | --- | --- | --- | --- | --- | --- | --- | --- | --- | --- | --- | --- | --- |
|  | COc1cc(Nc2ncc(F)c(Nc3ccc4c(n3)NC(=O)C(C)(C)O4)n2)cc(OC)c1OC [Tamatinib] | Synergy | Synergy | Synergy |  |  |  |  |  |  |  |  |  |  |  |  |
| orally bioavailable | CCN(c1cc(-c2ccc(CN3CCOCC3)cc2)cc(C(=O)NCc2c(C)cc(C)[nH]c2=O)c1C)C1CCOCC1 [tazemetostat] |  |  |  | tumor growth inhibition | tumor growth inhibition | objective clinical responses | significant increase of apoptosis | does not affect | induces a gene set that is heavily enriched for plasma cell and memory cell genes | slight decrease | increase |  |  |  |  |
|  | B1 | slight synergy |  |  |  |  |  |  |  |  |  |  | does not affect | significant decrease of apoptosis | antagonism | up-regulation of PRDM1 |
